Experiments:
AChE = conditions: ref Rook et al., 2010; Zhao et al., 2018; read-out: AChE (bis-(2)-β-carboline 4, Figure 1); cited from earlier work
BuChE = conditions: ref Rook et al., 2010; Zhao et al., 2018; read-out: BuChE (bis-(2)-β-carboline 4, Figure 1); cited from earlier work
hAChE = hAChE (Homo sapiens, UniProt P22303); assay: biochemical; conditions: for IC50: Mean ± SD from 3-5 assays, read-out: IC50 (nM) for cholinesterase hAChE
Procedure: 50 μL of hAChE (0.02 unit/mL) or hBChE (0.02 unit/mL) were incubated with 10 μL of the compound in 96-well plates at 37°C for 6 min. Subsequently, 30 μL of a substrate solution containing acetylthiocholine iodide (ATCI) or butyrylthiocholine iodide (BTCI) at a concentration of 0.01 M was added, and the mixture was further incubated at 37°C for an additional duration of 12 min.

hBuChE = hBuChE (Homo sapiens, UniProt P06276); assay: Ellman's assay, hBuChE inhibition; type: biochemical; conditions: for IC50: Mean ± SD from 3-5 assays, read-out: IC50 (nM) for cholinesterase hBuChE; for inhibition at 1 µM: compound at 1 μM, read-out: inhibition of hBuChE in primary screening
Chain of hBuChE (P06276 29-602): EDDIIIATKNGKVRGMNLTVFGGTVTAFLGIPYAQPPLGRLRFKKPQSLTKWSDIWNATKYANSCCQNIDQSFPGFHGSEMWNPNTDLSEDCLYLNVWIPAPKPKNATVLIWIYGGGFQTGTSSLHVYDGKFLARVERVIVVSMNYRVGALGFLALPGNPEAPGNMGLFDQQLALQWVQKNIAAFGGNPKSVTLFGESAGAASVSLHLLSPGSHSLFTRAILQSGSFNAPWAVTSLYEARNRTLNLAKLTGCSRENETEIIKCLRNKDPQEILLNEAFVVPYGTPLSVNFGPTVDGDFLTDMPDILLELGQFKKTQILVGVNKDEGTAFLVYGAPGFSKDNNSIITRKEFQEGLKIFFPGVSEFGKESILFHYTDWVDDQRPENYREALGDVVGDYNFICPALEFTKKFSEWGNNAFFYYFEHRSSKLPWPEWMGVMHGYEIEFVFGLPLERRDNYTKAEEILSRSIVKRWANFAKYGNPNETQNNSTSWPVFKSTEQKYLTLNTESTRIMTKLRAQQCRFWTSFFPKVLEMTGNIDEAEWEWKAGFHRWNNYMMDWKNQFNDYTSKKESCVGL
Procedure: The Ellman’s assay was utilized to assess the inhibitory potential of novel bis(7)-harmine derivatives against hAChE and hBuChE. 50 μL of hAChE (0.02 unit/mL) or hBChE (0.02 unit/mL) were incubated with 10 μL of the compound in 96-well plates at 37°C for 6 min. Subsequently, 30 μL of a substrate solution containing acetylthiocholine iodide (ATCI) or butyrylthiocholine iodide (BTCI) at a concentration of 0.01 M was added, and the mixture was further incubated at 37°C for an additional duration of 12 min. Finally, the activity was measured by adding 150 μL of a solution containing 5,5′−dithiobis (2-nitrobenzoic acid) (DTNB) at a concentration of 0.01 M, followed by measuring absorbance at a wavelength of 415 nm using an Evolution 300 PC UV-Vis Spectrophotometer.

recombinant hMAO-A = target: T1, recombinant hMAO-A (Homo sapiens, UniProt P21397); assay: biochemical; conditions: for IC50: mean ± SD, read-out: IC50 (nM) for monoamine oxidases hMAO-A
T1 construct: purchased Sigma-Aldrich
T1 sequence (P21397 1-527): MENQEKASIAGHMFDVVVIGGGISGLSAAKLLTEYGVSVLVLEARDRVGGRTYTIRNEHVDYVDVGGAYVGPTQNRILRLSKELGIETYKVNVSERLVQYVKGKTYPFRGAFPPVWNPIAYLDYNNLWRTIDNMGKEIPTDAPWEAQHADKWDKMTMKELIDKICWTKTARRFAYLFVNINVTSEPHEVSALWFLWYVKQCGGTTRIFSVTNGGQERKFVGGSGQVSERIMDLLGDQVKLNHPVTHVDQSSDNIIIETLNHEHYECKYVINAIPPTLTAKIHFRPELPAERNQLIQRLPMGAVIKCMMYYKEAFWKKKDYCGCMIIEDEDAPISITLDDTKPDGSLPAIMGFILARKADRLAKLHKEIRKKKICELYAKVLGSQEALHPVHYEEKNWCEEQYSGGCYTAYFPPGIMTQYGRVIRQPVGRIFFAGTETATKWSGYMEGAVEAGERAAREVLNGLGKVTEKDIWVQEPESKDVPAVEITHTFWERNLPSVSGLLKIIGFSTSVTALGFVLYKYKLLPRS
Procedure: (§1) Briefly, the compounds under investigation and the reference inhibitor were preincubated with kynuramine at 37°C for 10 min in 96-well microplates. […] The enzymatic reactions were terminated by adding 400 μL of 2 N NaOH and 1,000 μL of water, followed by centrifugation at 16,000 g for 10 min. Subsequently, the concentrations of MAOs that produced 4-hydroxyquinoline were determined by measuring the fluorescence of the supernatant using a Varioskan Flash Multimode Reader ([…]) with excitation and emission wavelengths set at 310 nm and 400 nm, respectively. The IC50 values were calculated from dose-response curves and expressed as the mean ± standard deviation. These values were determined based on at least three independent experiments, each performed in triplicate.

recombinant hMAO-B = target: T2, recombinant hMAO-B (Homo sapiens, UniProt P27338); assay: biochemical; conditions: for inhibition at 1 µM: compound at 1 μM, read-out: inhibition of hMAO-B in primary screening; for IC50: mean ± SD, read-out: IC50 (nM) for monoamine oxidases hMAO-B
T2 construct: purchased Sigma-Aldrich
T2 sequence (P27338 1-520): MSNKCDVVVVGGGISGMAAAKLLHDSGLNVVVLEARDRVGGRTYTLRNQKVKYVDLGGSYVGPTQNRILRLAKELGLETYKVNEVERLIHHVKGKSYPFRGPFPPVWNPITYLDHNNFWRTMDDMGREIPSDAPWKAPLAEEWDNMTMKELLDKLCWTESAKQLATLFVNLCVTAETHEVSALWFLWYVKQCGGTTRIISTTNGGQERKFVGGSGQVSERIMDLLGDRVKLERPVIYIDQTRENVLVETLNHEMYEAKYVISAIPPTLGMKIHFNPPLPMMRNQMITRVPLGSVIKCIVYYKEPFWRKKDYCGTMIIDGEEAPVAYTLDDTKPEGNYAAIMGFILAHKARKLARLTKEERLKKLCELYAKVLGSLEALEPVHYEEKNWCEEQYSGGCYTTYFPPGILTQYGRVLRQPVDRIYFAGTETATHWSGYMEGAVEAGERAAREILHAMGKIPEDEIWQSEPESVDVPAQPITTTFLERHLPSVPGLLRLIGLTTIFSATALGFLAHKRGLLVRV
Procedure: as §1

Aβ 1−42 = Aβ 1−42 (Homo sapiens, UniProt P05067); assay: Thioflavin T fluorescence assay, Aβ 1−42 self-aggregation; type: biochemical; conditions: for inhibition percent ratio of self-induced Aβ 1-42 aggregation: compound at 20 μM; for IC50: Aβ 1-42 20 μM, 37°C, 24 h
Chain of Aβ 1−42 (P05067 672-713 limits assumed): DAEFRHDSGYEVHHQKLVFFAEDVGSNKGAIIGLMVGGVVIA
Procedure: The thioflavin T (Th-T) fluorescence assay was used to assess the inhibition of Aβ 1−42 self-aggregation. […] Subsequently, the reaction was terminated to a final volume of 200 μL using Th-T (10 μM) solution.

SHSY5Y cells [1] = assay: In vitro cytotoxicity, MTT assay; type: cell-based; conditions: 48 h; for effect on SHSY5Y cell viability: 1 μM
Procedure: Following this incubation period, the MTT solution was substituted with […] of DMSO and further incubated at room temperature for 10 minutes to dissolve formazan crystals formed by viable cells. Sorensen Buffer ([…]) was added subsequently followed by measuring absorbance at a wavelength of 570 nm to determine cell viability based on calculated values obtained from control samples without compound treatment. This experimental procedure was repeated independently three times.

SHSY5Y cells [2] = assay: Protection of SHSY5Y cells against damage induced by Aβ 1−42, MTT; type: cell-based, human; conditions: treatment with Aβ 1−42 5 μM, 48 h, MTT
Procedure: The protective effect of the test compounds against Aβ 1-42-induced damage was assessed by monitoring MTT reduction in cells co-exposed to the compound and Aβ 1-42 for 48 h (Figure 3) ([…]). The 6d, 8c, and 8d were tested at concentrations of 1, 5, and 10 μM. […] Therefore, it is imperative to elucidate the underlying mechanisms responsible for these protective effects.
The SHSY5Y cells were seeded in 96-well plates at a density of 1 × 10^4 cells per well and incubated at 37°C for 24 h. Each compound was dissolved in DMSO, followed by direct dilution in the cell culture medium to achieve final concentrations of 1 μM, 5 μM, and 10 μM. Aβ 1−42 was added to each well at a concentration of 5 μM. The cells were then further incubated at 37°C for an additional period of 48 h. Cell viability was subsequently assessed using the MTT assay protocol ([…]).

Chain of hAChE (P22303 32-614): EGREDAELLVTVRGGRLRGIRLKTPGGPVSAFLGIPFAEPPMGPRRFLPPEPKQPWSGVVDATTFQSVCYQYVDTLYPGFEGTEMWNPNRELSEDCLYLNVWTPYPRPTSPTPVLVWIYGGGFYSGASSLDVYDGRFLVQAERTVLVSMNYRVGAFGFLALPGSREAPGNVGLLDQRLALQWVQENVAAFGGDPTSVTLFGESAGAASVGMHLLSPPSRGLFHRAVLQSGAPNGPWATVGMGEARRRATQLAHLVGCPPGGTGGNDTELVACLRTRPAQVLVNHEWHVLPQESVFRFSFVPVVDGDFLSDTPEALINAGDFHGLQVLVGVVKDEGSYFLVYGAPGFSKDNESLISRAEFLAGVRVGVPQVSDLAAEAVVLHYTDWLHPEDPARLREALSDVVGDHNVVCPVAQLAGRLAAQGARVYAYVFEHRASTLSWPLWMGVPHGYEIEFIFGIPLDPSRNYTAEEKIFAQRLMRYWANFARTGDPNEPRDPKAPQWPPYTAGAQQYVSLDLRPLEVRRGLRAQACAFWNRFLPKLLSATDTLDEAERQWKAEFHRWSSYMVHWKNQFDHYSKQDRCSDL

Row | Compound | IC50 (AChE) | IC50 (BuChE) | S.I. Selectivity index IC50(hBuChE)/IC50(hAChE) (hAChE) | IC50 (hAChE) | IC50 (hBuChE) | S.I. Selectivity index IC50(hMAO-B)/IC50(hMAO-A) (recombinant hMAO-A) | IC50 (recombinant hMAO-A) | inhibition at 1 µM (recombinant hMAO-B) | inhibition percent ratio of self-induced Aβ 1-42 aggregation (Aβ 1−42) | IC50 (recombinant hMAO-B) | inhibition at 1 µM (hBuChE) | IC50 (Aβ 1−42) | effect on SHSY5Y cell viability (SHSY5Y cells [1]) | inhibition at 1 µM (hAChE; compound at 1 μM, read-out: inhibition of hAChE in primary screening) | cytotoxicity in SHSY5Y cells (SHSY5Y cells [1]; 0.1 to 10 μM) | SHSY5Y cell viability at increased concentration (SHSY5Y cells [1]; concentration increased to 10 μM (so in the source)) | reduction of viability of SHSY5Y neuroblastoma cells (SHSY5Y cells [2])
1 | c1ccc2c(c1)[nH]c1c[n+](CCCCCCCCCCCC[n+]3ccc4c(c3)[nH]c3ccccc34)ccc12 [Compound 4] | 86 nM | 22 nM | – | – | – | – | – | – | – | – | – | – | – | – | – | – | –
2 | CCn1c2cc(OCCCCCCOc3ccc4c5ccnc(C)c5n(CC)c4c3)ccc2c2ccnc(C)c21 [Compound 6b, 1,6-bis ((9-ethyl-1-methyl-9H-pyrido [3,4-b]indol-7-yl)oxy)hexane] | – | – | 0.1 | 652 ± 35.8 nM | 86.8 ± 5.3 nM | >1.1 | 893 ± 59.3 nM | 41.2% | 40.2% | – | – | – | – | – | – | – | –
3 | CCCn1c2cc(OCCCCCCOc3ccc4c5ccnc(C)c5n(CCC)c4c3)ccc2c2ccnc(C)c21 [Compound 6c, 1,6-bis ((1-methyl-9-propyl-9H-pyrido [3,4-b]indol-7-yl)oxy)hexane] | – | – | 12.1 | 82.1 ± 6.9 nM | 994 ± 73.4 nM | 25.2 | 21 ± 1.18 nM | – | 35.8% | 529 ± 38.7 nM | – | – | – | – | – | – | –
4 | Cc1nccc2c3ccc(OCCCCCCCOc4ccc5c6ccnc(C)c6n(C)c5c4)cc3n(C)c12 [Compound 7a, 1,7-bis ((1,9-dimethyl-9H-pyrido [3,4-b]indol-7-yl)oxy)heptane] | – | – | >4.4 | 226 ± 13.4 nM | – | 40.1 | 7.2 ± 0.8 nM | – | – | 281 ± 24.5 nM | 37.3% | 6.3 ± 0.2 µM | pronounced detrimental effect | – | – | – | –
5 | CCn1c2cc(OCCCCCCCOc3ccc4c5ccnc(C)c5n(CC)c4c3)ccc2c2ccnc(C)c21 [Compound 7b, 1,7-bis ((9-ethyl-1-methyl-9H-pyrido [3,4-b]indol-7-yl)oxy)heptane] | – | – | >2.6 | 386 ± 26.8 nM | – | 0.5 | 150 ± 12.4 nM | – | 29.6% | 79.8 ± 4.9 nM | 36.5% | – | – | – | – | – | –
6 | CCCn1c2cc(OCCCCCCCOc3ccc4c5ccnc(C)c5n(CCC)c4c3)ccc2c2ccnc(C)c21 [Compound 7c, 1,7-bis ((1-methyl-9-propyl-9H-pyrido [3,4-b]indol-7-yl)oxy)heptane] | – | – | >25.6 | 39.2 ± 2.9 nM | – | >111.1 | 9.1 ± 0.6 nM | 34.1% | – | – | 44.8% | 13.3 ± 0.6 µM | – | – | – | – | –
7 | C=CCn1c2cc(OCCCCCCCOc3ccc4c5ccnc(C)c5n(CC=C)c4c3)ccc2c2ccnc(C)c21 [Compound 7d, 1,7-bis ((9-allyl-1-methyl-9H-pyrido [3,4-b]indol-7-yl)oxy)heptane] | – | – | – | 896 ± 65.4 nM | 23.7 ± 1.3 nM | 0.2 | 74.6 ± 5.2 nM | – | – | 12.6 ± 0.76 nM | – | 17.1 ± 0.6 µM | – | – | – | – | –
8 | Cc1nccc2c3ccc(OCCCCCCCCOc4ccc5c6ccnc(C)c6n(C)c5c4)cc3n(C)c12 [Compound 8a, 1,8-bis ((1,9-dimethyl-9H-pyrido [3,4-b]indol-7-yl)oxy)octane] | – | – | – | – | – | 10.0 | 95.2 ± 4.9 nM | – | – | 954 ± 49.8 nM | 39.1% | 16.5 ± 0.4 µM | – | 42.2% | – | – | –
9 | CCn1c2cc(OCCCCCCCCOc3ccc4c5ccnc(C)c5n(CC)c4c3)ccc2c2ccnc(C)c21 [Compound 8b, 1,8-bis ((9-ethyl-1-methyl-9H-pyrido [3,4-b]indol-7-yl)oxy)octane] | – | – | 2.7 | 324 ± 20.5 nM | 855 ± 48.8 nM | 11.5 | 66.5 ± 4.1 nM | – | – | 758 ± 52.6 nM | – | 18.7 ± 0.9 µM | pronounced detrimental effect | – | – | – | –
10 | CCCn1c2cc(OCCCCCCCCOc3ccc4c5ccnc(C)c5n(CCC)c4c3)ccc2c2ccnc(C)c21 [Compound 8c, 1,8-bis ((1-methyl-9-propyl-9H-pyrido [3,4-b]indol-7-yl)oxy)octane] | – | – | >6.3 | 158 ± 11.6 nM | – | 9.5 | 16.4 ± 1.1 nM | – | – | 153 ± 8.3 nM | 43.4% | 19.3 ± 1 µM | – | – | negligible cytotoxicity | evident decrease in SHSY5Y cell viability | –
11 | Aβ 1−42: amyloid-β peptide 1−42 used to induce damage in SHSY5Y cells [reference compound] | – | – | – | – | – | – | – | – | – | – | – | – | – | – | – | – | 48.7%

Source: article PMC11813896, “Bis(7)-harmine derivatives as potential multi-target anti-Alzheimer agents” (Frontiers in Chemistry, 2025)
